Experimental data from ChEMBL document CHEMBL1201862, “PubChem BioAssay data set” (2004).
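Results reflect a 48-hour exposure of cells in 96-well plates to compound at five concentrations. At the GI50, growth is halved.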 Activity calls are given as the source filed them. Cut-off read from the data, not from the text of the source: active = GI50 up to about 1.1 µM and inactive = higher.

Assays:
Experiment in all cases: inhibition of tumour cell growth, NCI panel, 48 h
[1] = system: HL-60
[2] = system: COLO 205
[3] = system: MDA-MB-231
[4] = system: OVCAR-3
[5] = system: CAKI-1
[6] = system: U-251
[7] = system: HCT-116
[8] = system: EKVX
[9] = system: SNB-19
[10] = system: HT-29
[11] = system: M14
[12] = system: KM12
[13] = system: SF-268
[14] = system: LOX IMVI
[15] = system: RXF 393
[16] = system: T47D
[17] = system: K562
[18] = system: HOP-62
[19] = system: MDA-N

Row | SMILES | GI50 [1] | GI50 [2] | GI50 [3] | GI50 [4] | GI50 [5] | GI50 [6] | GI50 [7] | GI50 [8] | GI50 [9] | GI50 [10] | GI50 [11] | GI50 [12] | GI50 [13] | GI50 [14] | GI50 [15] | GI50 [16] | GI50 [17] | GI50 [18] | GI50 [19]
1 | COc1cc2c(cc1OCCCOS(C)(=O)=O)N=C[C@@H]1CCCN1C2=O | > 100 µM (inactive) | > 100 µM (inactive) | > 100 µM (inactive) | > 100 µM (inactive) | > 100 µM (inactive) | > 100 µM (inactive) | > 100 µM (inactive) | > 100 µM (inactive) | > 100 µM (inactive) | > 100 µM (inactive) | > 100 µM (inactive) | > 100 µM (inactive) | > 100 µM (inactive) | > 100 µM (inactive) | > 100 µM (inactive) | > 100 µM (inactive) |  |  | 
2 | CCOC(=O)c1c(SC(=O)/C=C/c2ccccc2)n(-c2ccccc2)c(=S)n(-c2ccccc2)c1=O |  | > 100 µM (inactive) | > 100 µM (inactive) | > 100 µM (inactive) | > 100 µM (inactive) | > 100 µM (inactive) | > 100 µM (inactive) | > 100 µM (inactive) | > 100 µM (inactive) | > 100 µM (inactive) | > 100 µM (inactive) | > 100 µM (inactive) | > 100 µM (inactive) | > 100 µM (inactive) | > 100 µM (inactive) | > 100 µM (inactive) | > 100 µM (inactive) | > 100 µM (inactive) | 
3 | COC(=O)C1(C(=O)OC)CC(=O)c2c(OC(=O)c3cccc(OC)c3C#N)ccc(OC(=O)c3cccc(OC)c3C#N)c2C1 | > 100 µM (inactive) | > 100 µM (inactive) | > 100 µM (inactive) | > 100 µM (inactive) | > 100 µM (inactive) | > 100 µM (inactive) | > 100 µM (inactive) | > 100 µM (inactive) | > 100 µM (inactive) | > 100 µM (inactive) | > 100 µM (inactive) | > 100 µM (inactive) | > 100 µM (inactive) | > 100 µM (inactive) | > 100 µM (inactive) |  | > 100 µM (inactive) | > 100 µM (inactive) | > 100 µM (inactive)
4 | C/C(=N\Nc1ccc([N+](=O)[O-])cc1[N+](=O)[O-])c1ccc2ccccc2n1 |  | > 100 µM (inactive) | 49.3 µM (inactive) |  | 58.9 µM (inactive) | 33.1 µM (inactive) | 57.4 µM (inactive) | > 100 µM (inactive) | 20 µM (inactive) | 74.6 µM (inactive) | > 100 µM (inactive) | > 100 µM (inactive) | 61 µM (inactive) |  | > 100 µM (inactive) | > 100 µM (inactive) | > 100 µM (inactive) |  | > 100 µM (inactive)
5 | Cc1ccc(C)n1-n1c(-c2ccccc2)n[nH]c1=O |  | > 100 µM (inactive) | > 100 µM (inactive) | > 100 µM (inactive) | > 100 µM (inactive) | > 100 µM (inactive) | > 100 µM (inactive) | > 100 µM (inactive) | > 100 µM (inactive) | > 100 µM (inactive) | > 100 µM (inactive) | 34.3 µM (inactive) | > 100 µM (inactive) | > 100 µM (inactive) | > 100 µM (inactive) | > 100 µM (inactive) | 53.7 µM (inactive) | > 100 µM (inactive) | 24.8 µM (inactive)
6 | CCC1C(c2cccc(OC)c2O)c2cc3c(cc2OC1N1CCCC1)OCO3 (stereo not drawn) |  | > 10 µM (inactive) |  | 13.8 µM (inactive) |  |  | 8.47 µM (inactive) | 22.8 µM (inactive) | 14.6 µM (inactive) | 16.5 µM (inactive) | 6.43 µM (inactive) | 12 µM (inactive) | 16.7 µM (inactive) | 23.3 µM (inactive) |  | 16.2 µM (inactive) | 11.8 µM (inactive) | 18.4 µM (inactive) | 3.24 µM (inactive)
7 | CCOC(=O)/C(C(=S)Nc1ccccc1)=C(/N)N1CCCC1 | 49.9 µM (inactive) | > 100 µM (inactive) | 29.7 µM (inactive) | > 100 µM (inactive) | > 100 µM (inactive) | 61.2 µM (inactive) | 65.5 µM (inactive) | > 100 µM (inactive) | 50.2 µM (inactive) | > 100 µM (inactive) | 72.6 µM (inactive) | 61.1 µM (inactive) | > 100 µM (inactive) | > 100 µM (inactive) | 63.1 µM (inactive) |  | 37 µM (inactive) | > 100 µM (inactive) | 31 µM (inactive)
8 | O=c1[nH]c(=O)n(C2CC(O)C(CO)O2)c2nc3cc4ccccc4cc3nc12 (stereo not drawn) |  | > 100 µM (inactive) | 52.7 µM (inactive) | > 100 µM (inactive) | > 100 µM (inactive) | 59.2 µM (inactive) | > 100 µM (inactive) | > 100 µM (inactive) | 14.5 µM (inactive) |  | > 100 µM (inactive) | > 100 µM (inactive) | 73.1 µM (inactive) | > 100 µM (inactive) | 26.5 µM (inactive) | > 100 µM (inactive) | > 100 µM (inactive) | 33.9 µM (inactive) | > 100 µM (inactive)
9 | O=C(OCC1CCCN2CCCCC12)c1ccncc1 (stereo not drawn) |  | > 100 µM (inactive) | > 100 µM (inactive) | > 100 µM (inactive) | > 100 µM (inactive) | > 100 µM (inactive) | > 100 µM (inactive) | > 100 µM (inactive) | > 100 µM (inactive) | > 100 µM (inactive) | > 100 µM (inactive) | > 100 µM (inactive) | > 100 µM (inactive) | > 100 µM (inactive) | > 100 µM (inactive) | > 100 µM (inactive) | > 100 µM (inactive) | > 100 µM (inactive) | > 100 µM (inactive)
10 | O=[N+]([O-])c1cccc([N+](=O)[O-])c1Cl | 2.82 µM (inactive) | 20.6 µM (inactive) | 21.2 µM (inactive) | 1.29 µM (inactive) | 3.18 µM (inactive) | 11 µM (inactive) | 40.6 µM (inactive) | 20.3 µM (inactive) | 13.1 µM (inactive) | 19.9 µM (inactive) | 10.2 µM (inactive) | 11.1 µM (inactive) | 19.4 µM (inactive) | 1.35 µM (inactive) | 17.7 µM (inactive) | 2.96 µM (inactive) | 5.71 µM (inactive) | 23.5 µM (inactive) | 
11 | Cc1ccc2c(=O)cc(-c3cccc(F)c3)[nH]c2n1 | 0.0212 µM (active) | 0.0224 µM (active) | 0.0845 µM (active) | 0.0201 µM (active) | 0.0498 µM (active) | 0.0389 µM (active) | 0.0406 µM (active) | 0.0719 µM (active) | 0.153 µM (active) | 0.0359 µM (active) | 0.0361 µM (active) | 0.022 µM (active) | 0.0678 µM (active) | 0.0518 µM (active) | 0.0415 µM (active) |  | 0.0313 µM (active) | 0.0655 µM (active) | < 0.012 µM (active)
12 | C/C(=C\C(=N\NC(=N)N)c1ccccc1)c1ccccc1 |  | 0.0348 µM (active) |  | 0.409 µM (active) | 0.149 µM (active) | 0.652 µM (active) | 0.273 µM (active) |  | 1.6 µM (inactive) | 0.354 µM (active) | 1.17 µM (inactive) | 1.17 µM (inactive) | 0.459 µM (active) | 1.23 µM (inactive) | 1.41 µM (inactive) | 0.12 µM (active) | 1.53 µM (inactive) | 0.0822 µM (active) | 0.973 µM (active)
